Data published in publication PMC9196629, “Synthesis, Characterization and Antitumor Mechanism Investigation of Heterometallic Ru(Ⅱ)-Re(Ⅰ) Complexes” (Frontiers in Chemistry, 2022).

Legend:
HeLa cells [1] = assay: Mitochondrial membrane potential (MMP) by Rh123 staining; format: cell-based, human; settings: 6 h, confocal microscopy
Excerpt: Apoptosis is associated with a decrease in MMP ([Wu et al., 2022]), so we investigated the effects of RuRe-1 and RuRe-2 on MMP. A decrease in fluorescence intensity of rhodamine 123 (Rh123) can indicate the loss of MMP ([Ma et al., 2019]). […] The decline of MMP further confirmed that RuRe-1 and RuRe-2 could influence mitochondrial function and promote apoptosis.
FIGURE 6 RuRe-1 and RuRe-2 induced the loss of MMP analyzed by confocal microscopy with Rh123 staining (λ ex = 488 nm, λ em = 530 ± 20 nm). The incubation time of the compounds was 6 h. Scale bar: 20 μm.
Measurement of MMP. After HeLa cells were adhered to the confocal dishes, the medium was replaced with medium containing the indicated concentrations of RuRe-1 and RuRe-2 for 6 h. Subsequently, the medium was aspirated and the cells were washed three times with PBS, then stained with Rh123 (1 μg/mL) for 30 mins. After washing with PBS twice, cells were observed under a confocal microscopy (λex = 488 nm, λem = 530 ± 20 nm).

[2] = n-octanol/water partition coefficient by shaking flask method; format: physicochemical
Excerpt: Drugs exert their effects through pharmacokinetic processes such as absorption, distribution, and metabolism, which are closely related to the n-octanol/water partition coefficient of the drug (log P o/w) ([Choi et al., 2012]).

caspase-3 = assay: Western blot of apoptosis-related proteins; format: cell-based, human; settings: HeLa, different concentrations, 24 h
Experimental: (§1) Cysteine aspartate proteases play an important role in apoptosis, especially caspase-3 protein, which is one of the most important execution factors in the apoptotic pathway ([Wang X. et al., 2021]). The poly(ADP-ribose) polymerase (PARP) is associated with DNA repair and guardianship of genetic integrity ([Pandey and Black, 2021]). After treating HeLa cells with different concentrations of RuRe-1 or RuRe-2 for 24 h, the expression of caspase-3 and the caspase substrate PARP apoptotic protein were detected by western blot. […] It was further shown that RuRe-1 and RuRe-2 are activators of caspase-3, which can trigger apoptosis in HeLa cells.
(§2) FIGURE 4 Expression of apoptosis-related protein (caspase-3 and PARP) in HeLa cells treated with RuRe-1 and RuRe-2 for 24 h.
(§3) Western blot analysis. HeLa cells were plated into the 6-well plates, after treating with different doses of RuRe-1 and RuRe-2 for 24 h, the cells were collected and lysed. The protein concentration was determined using the BCA assay kit. Equal amounts of protein were ran on SDS-PAGE and then transferred to the PVDF membrane.

PARP = assay: Western blot of apoptosis-related proteins; format: cell-based, human; settings: HeLa, different concentrations, 24 h
Experimental: as §1, §2, §3

HeLa cells [3] = assay: Intracellular ROS by H2DCFDA staining; format: cell-based, human; settings: 6 h, confocal microscopy
Experimental: ROS are natural by-product of normal oxygen metabolism and play an important role in cellular signaling transduction and homeostasis in vivo ([Casas et al., 2020]). It has been shown that the excessive production of ROS may cause oxidative stress and lead to cell death ([Jia et al., 2020]). Herein, cells were treated with RuRe-1 and RuRe-2 for 6 h and then stained with 2′,7′-dichlorodihydrouorescein diacetate (H2DCFDA). H2DCFDA is non-fluorescent and can be oxidized by intracellular ROS to highly fluorescent 2′,7′-dichlorofluorescein (DCF) ([Abdel Hadi et al., 2021]). The intensity of green fluorescence can respond to the accumulation of intracellular ROS.
FIGURE 7 RuRe-1 and RuRe-2 induced the elevation of intracellular ROS levels examined by confocal microscopy with H2DCFDA staining (λ ex = 488 nm, λ em = 530 ± 20 nm). The incubation time of the compounds was 6 h. Scale bar: 20 μm.
Measurement of intracellular ROS. After HeLa cells were adhered to the confocal dishes, the medium was replaced with medium containing the indicated concentrations of RuRe-1 and RuRe-2 for 6 h. Subsequently, the medium was aspirated and cells were washed three times with serum-free DMEM. Then, cells were co-incubated with fluorescent dye H2DCFDA (10 μM) at 37 °C for 10 mins and washed three times with PBS and visualized by a confocal microscope (λex = 488 nm, λem = 530 ± 20 nm).

HeLa cells [4] = assay: Colony formation assay; format: cell-based, human; settings: 24 h treatment then 7 days
Experimental: The consequence of increased local cell migration is distal invasion, and the clonal growth of distal invasive cells will produce a second tumor ([Wang et al., 2017]). We further investigated the ability of RuRe-1 and RuRe-2 to inhibit the formation of cell colonies by cell colony formation assay.
Colony forming assay. HeLa cells were cultured in 6-well plates at a density of 500 cells per well. After cells had adhered, the medium was replaced with medium containing the indicated concentrations of RuRe-1 and RuRe-2 for 24 h. Subsequently, the medium was replaced with fresh medium and the cells were cultured for 7 days to form colonies. The colonies formed were fixed with 4% paraformaldehyde, and stained with crystal violet (0.005%). Finally, colonies were calculated and the images were taken using digital camera.

SMILES | MMP (green fluorescence intensity of Rh123) (HeLa cells [1]) | log P o/w [2] | cleavage of caspase-3 (western blot) (caspase-3) | cleavage of PARP (western blot) (PARP) | intracellular ROS levels (H2DCFDA) (HeLa cells [3]) | cell populations (colonies) compared to the control group (HeLa cells [4]; 9.3 μM) [%] | cell populations (colonies) compared to the control group (HeLa cells [4]; 7.5 μM) [%]
F[P-](F)(F)(F)(F)F.F[P-](F)(F)(F)(F)F.F[P-](F)(F)(F)(F)F.[C-]#[O+].[C-]#[O+].[C-]#[O+].[Re+].[Ru+2].c1ccc(-c2ccccn2)nc1.c1ccc(-c2ccccn2)nc1.c1ccc(-c2ccnc3c2ccc2c(-c4ccccc4)ccnc23)cc1.c1cnc2c(c1)c1nc(-c3ccncc3)[nH]c1c1cccnc12 [RuRe-1, [Ru(bpy)2LRe(CO)3(DIP)](PF6)3] | decrease in the green fluorescence intensity of Rh123 in a dose-dependent manner | 0.47 | induced the cleavage | induced the cleavage | increase in intracellular ROS levels in a concentration-dependent manner | 4.8 | 
F[P-](F)(F)(F)(F)F.F[P-](F)(F)(F)(F)F.F[P-](F)(F)(F)(F)F.[C-]#[O+].[C-]#[O+].[C-]#[O+].[Re+].[Ru+2].c1ccc(-c2ccnc3c2ccc2c(-c4ccccc4)ccnc23)cc1.c1cnc2c(c1)c1nc(-c3ccncc3)[nH]c1c1cccnc12.c1cnc2c(c1)ccc1cccnc12.c1cnc2c(c1)ccc1cccnc12 [RuRe-2, [Ru(phen)2LRe(CO)3(DIP)](PF6)3] | decrease in the green fluorescence intensity of Rh123 in a dose-dependent manner | 2.10 | induced the cleavage | induced the cleavage | increase in intracellular ROS levels in a concentration-dependent manner |  | 3.9
